# Reference: patent publication US6783949B1, “Processes for determining whether a test substance contains lipases or lipase inhibitors” (Aventis Pharma Deutschland GmbH, priority 1999, dated 2004)
# Like-named read-outs stand apart in the source and are kept apart here.
# Experiments:
# [1] = target: T1, HSL (Rattus norvegicus, UniProt P15304); test: Indirect NAG assay (extinction increase at 481 nm); type: biochemical; settings: for Absorption at 481 nm: HSL 20 μg, 60 min, NAG 0.05 mg/ml
# T1 construct: The partially purified HSL can be stored at −70° C. for 4 to 6 weeks; from tissue; host or cells: rat epididymal fat cells (male Wistar rats)
# T1 sequence (P15304 1-768 isoform P15304-2): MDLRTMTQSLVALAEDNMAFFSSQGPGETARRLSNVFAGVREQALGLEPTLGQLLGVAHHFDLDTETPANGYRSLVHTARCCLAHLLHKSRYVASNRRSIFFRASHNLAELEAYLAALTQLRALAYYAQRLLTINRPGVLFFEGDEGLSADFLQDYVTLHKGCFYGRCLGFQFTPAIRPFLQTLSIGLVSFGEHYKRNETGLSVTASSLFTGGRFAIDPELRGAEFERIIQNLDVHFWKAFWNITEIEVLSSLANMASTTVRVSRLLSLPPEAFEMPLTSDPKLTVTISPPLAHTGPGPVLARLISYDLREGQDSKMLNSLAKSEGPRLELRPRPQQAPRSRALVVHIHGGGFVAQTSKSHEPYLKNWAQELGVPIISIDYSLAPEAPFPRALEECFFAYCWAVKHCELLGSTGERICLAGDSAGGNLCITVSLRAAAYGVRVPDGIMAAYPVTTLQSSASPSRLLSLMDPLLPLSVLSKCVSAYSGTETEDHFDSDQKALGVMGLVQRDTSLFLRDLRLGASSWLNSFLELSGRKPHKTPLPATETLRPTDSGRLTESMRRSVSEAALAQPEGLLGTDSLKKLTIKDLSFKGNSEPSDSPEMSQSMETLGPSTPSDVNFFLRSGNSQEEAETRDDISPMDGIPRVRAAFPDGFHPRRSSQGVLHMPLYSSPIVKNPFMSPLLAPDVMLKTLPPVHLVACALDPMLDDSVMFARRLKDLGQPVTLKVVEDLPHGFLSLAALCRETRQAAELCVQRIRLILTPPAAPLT
# Protocol: A typical reaction is carried out at 30° C. for 60 min, for example in 1.5 ml Eppendorf vessels or 96-hole plates. […] 180 μl of the substrate solution (20 μg/ml of phosphatidylcholine, 10 μg/ml of phosphatidylinositol, 50 μg/ml of NAG in assay buffer) are added. After a preincubation for 15 min at 30° C., 20 μl of HSL in assay buffer are pipetted in and the extinction is immediately measured (see above) at 481 nm in a cuvette photometer (0.5 ml cuvette) or microtiter plate reader. After a certain incubation time, which is variable and depends on the chosen enzyme concentration and can be between 2 and 240 minutes, in this case incubation at 30° C. for 60 min, the extinction is measured again. The increase in the extinction in the yellow region, in this case at 481 nm, is a measure of the enzyme activity.
# Isolated rat fat cells are obtained from epididymal fatty tissue from untreated male rats (Wistar, 220-250 g) by collagenase treatment according to published processes. The fat cells from 10 rats are washed three times by flotation with 50 ml each of homogenization buffer ([…], pH 7.4, 0.25 M sucrose, 1 mM ethylenediamine-N,N,N′,N′-tetraacetic acid (EDTA), 1 mM dithiothreitol (DTT), 10 μg/ml of leupeptin, 10 μg/ml of antipain, 20 μg/ml of pepstatin) and finally taken up in 10 ml of homogenization buffer. The fat cells are homogenized in a Teflon-in-glass homogenizer (Braun-Melsungen) by 10 strokes at 1500 rpm and 15° C. The homogenizate is centrifuged (Sorvall SM24 tubes, 5000 rpm, 10 min, 4° C.). The […] between the overlying fatty layer and the pellet is removed and the centrifugation is repeated. The […] resulting from this is centrifuged again (Sorvall SM24 tubes, 20,000 rpm, 45 min, 4° C.). […] After incubation for 60 min at 4° C. (shake at intervals of 15 min), the batch is centrifuged (Sorvall SM24 tubes, 3000 rpm, 10 min, 4° C.). The supernatant is brought to pH 5.2 by addition of glacial acetic acid and incubated at 4° C. for 30 min. […] The suspension is dialyzed overnight at 4° C. against 25 mM TRIS/HCl, pH 7.4, 50% glycerol, 1 mM DTT, and 10 μg/ml of leupeptin, pepstatin, and antipain and then applied to a hydroxylapatite column (0.1 g per 1 ml of suspension, equilibrated with 10 mM potassium phosphate, pH 7.0, 30% glycerol, 1 mM DTT). The column is washed with four volumes of equilibration buffer at a flow rate of 20 to 30 ml/h. The HSL is eluted with a volume of equilibration buffer which contains 0.5 M potassium phosphate, then dialyzed (see above) and concentrated 5 to 10 times by ultrafiltration (Amicon Diaflo PM 10 filter) at 4° C. The partially purified HSL can be stored at −70° C. for 4 to 6 weeks.
# 6 mg of phosphatidylcholine and 6 mg of phosphatidylinositol are dissolved in 1 ml of chloroform each. 10 mg of NAG are dissolved in 1 ml of chloroform. […] The chloroform (225 μl total volume) is completely removed by overblowing with a stream of N2. The dried substrate can be stored at 4° C. for up to three days. For the preparation of the phospholipid vesicles/micelles having intercalated NAG (on the test day), the dried substrate is taken up in 20 ml of assay buffer (25 mM TRIS/HCl, pH 7.4; 150 mM NaCl) and two ultrasonic treatments with an ultrasonic probe (Branson Sonifier type 11, standard microtip): 1st treatment setting 2, 2×1 min, in between in each case 1 min on ice; 2nd treatment setting 4, 2×1 min, in between in each case 1 min on ice. […] Before use as a substrate (within the next 2 h), the solution is additionally incubated on ice for 15 min.
# The assay is carried out at 30° C. for 60 min in 1.5 ml Eppendorf vessels or 96-hole plates.
# [2] = Substrate stability towards detergents and solvents (extinction at 550 nm); type: physicochemical; settings: for Absorption at 550 nm: NAG 0.05 mg/ml, 37° C., 180 min
# [3] = target: T2, lipases, preferably HSL (Rattus norvegicus, UniProt P15304); test: Synthesized NBD-acylglycerides as substrates of lipases; type: biochemical
# T2 sequence (P15304 1-768 isoform P15304-2): T1 sequence (P15304 1-768 isoform P15304-2)
Molecule,Absorption at 550 nm ([2]; agent 0.05 %),Absorption at 550 nm ([2]; agent 0.1 %),Absorption at 550 nm ([2]; agent 0.2 %),Absorption at 550 nm ([2]; agent 0.5 %),Absorption at 550 nm ([2]; agent 1 %),Absorption at 550 nm ([2]; agent 2 %),Absorption at 550 nm ([2]; agent 5 %),Absorption at 550 nm ([2]; agent 10 %),Effect on the HSL activity [1],further results
CCO [Ethanol],3147 ± 288 arb. units,3056 ± 213 arb. units,3097 ± 253 arb. units,2995 ± 231 arb. units,2834 ± 256 arb. units,2510 ± 194 arb. units,1935 ± 163 arb. units,873 ± 103 arb. units,–,Absorption at 481 nm ([1]; agent 0.05 %): 3776 ± 253 arb. units; Absorption at 481 nm ([1]; agent 0.1 %): 4093 ± 387 arb. units; Absorption at 481 nm ([1]; agent 0.2 %): 4894 ± 325 arb. units; Absorption at 481 nm ([1]; agent 0.5 %): 4231 ± 296 arb. units; Absorption at 481 nm ([1]; agent 1 %): 3541 ± 294 arb. units; Absorption at 481 nm ([1]; agent 2 %): 2143 ± 215 arb. units; Absorption at 481 nm ([1]; agent 5 %): 1327 ± 143 arb. units; Absorption at 481 nm ([1]; agent 10 %): 423 ± 55 arb. units; Effect on the HSL activity ([1]; between 0.1 and 1% agent): increase in the HSL activity
"CC(=O)OCC(COC(=O)CCCCCCCCCCCNc1ccc([N+](=O)[O-])c2nonc12)OC(C)=O (stereo not drawn) [Compound (4), 2-Acetoxy-3-[12-(7-nitrobenzo[1,2,5]oxadiazol-4-ylamino)-dodecanoyloxy]propyl acetate]",–,–,–,–,–,–,–,–,–,Activity as substrate of lipases [3]: decrease in activity
CO [Methanol],3056 ± 243 arb. units,3102 ± 276 arb. units,2945 ± 241 arb. units,2683 ± 210 arb. units,2534 ± 191 arb. units,1985 ± 165 arb. units,1438 ± 121 arb. units,475 ± 92 arb. units,increase in the HSL activity,–
"CN(C)C=O [DMF, N,N-Dimethylformamide]",3121 ± 294 arb. units,2655 ± 308 arb. units,1952 ± 299 arb. units,1234 ± 234 arb. units,654 ± 112 arb. units,251 ± 82 arb. units,105 ± 42 arb. units,38 ± 10 arb. units,significant loss in activity,NAG released from the phospholipid/vesicle structures ([2]; 1% agent): over 80%
"C[S+](C)[O-] [DMSO, Dimethyl sulfoxide]",3003 ± 259 arb. units,3199 ± 302 arb. units,2984 ± 273 arb. units,3055 ± 289 arb. units,2845 ± 254 arb. units,2317 ± 266 arb. units,1432 ± 187 arb. units,372 ± 51 arb. units,–,"Reduction of the enzyme activity ([1]; 0.5% agent): 10%; Decrease in the enzyme activity (arithmetically) ([1]; 1% agent, corrected for substrate dissolution): 20%; Absorption at 481 nm ([1]; agent 0.05 %): 3423 ± 286 arb. units; Absorption at 481 nm ([1]; agent 0.1 %): 3320 ± 319 arb. units; Absorption at 481 nm ([1]; agent 0.2 %): 3301 ± 276 arb. units; Absorption at 481 nm ([1]; agent 0.5 %): 3199 ± 235 arb. units; Absorption at 481 nm ([1]; agent 1 %): 3156 ± 196 arb. units; Absorption at 481 nm ([1]; agent 2 %): 1488 ± 213 arb. units; Absorption at 481 nm ([1]; agent 5 %): 945 ± 169 arb. units; Absorption at 481 nm ([1]; agent 10 %): 272 ± 42 arb. units; Reduction of the amount of released NBD-FA ([1]; up to 1% agent): approximately 10%; Decrease of the extinction (amount of substrate) ([2]; 1% agent): 10%"
CC(C)=O [acetone],–,–,–,–,–,–,–,–,increase in the HSL activity,–
Triton ® X-100 [TX-100],3166 ± 308 arb. units,3247 ± 253 arb. units,3119 ± 277 arb. units,2954 ± 248 arb. units,2154 ± 199 arb. units,956 ± 101 arb. units,489 ± 77 arb. units,167 ± 45 arb. units,increase in the HSL activity,–
"CCCCCCCCCCCCOS(=O)(=O)[O-].[Na+] [SDS, Sodium dodecyl sulfate]",3063 ± 288 arb. units,2935 ± 254 arb. units,2769 ± 275 arb. units,2506 ± 301 arb. units,2296 ± 252 arb. units,1413 ± 178 arb. units,603 ± 89 arb. units,102 ± 12 arb. units,–,–
